Biological target: T1, GnT-V (β1,6-N-acetylglucosaminyl transferase) (Homo sapiens, UniProt Q09328)
T1 construct: 73/60 kDa
T1 sequence (Q09328 31-741): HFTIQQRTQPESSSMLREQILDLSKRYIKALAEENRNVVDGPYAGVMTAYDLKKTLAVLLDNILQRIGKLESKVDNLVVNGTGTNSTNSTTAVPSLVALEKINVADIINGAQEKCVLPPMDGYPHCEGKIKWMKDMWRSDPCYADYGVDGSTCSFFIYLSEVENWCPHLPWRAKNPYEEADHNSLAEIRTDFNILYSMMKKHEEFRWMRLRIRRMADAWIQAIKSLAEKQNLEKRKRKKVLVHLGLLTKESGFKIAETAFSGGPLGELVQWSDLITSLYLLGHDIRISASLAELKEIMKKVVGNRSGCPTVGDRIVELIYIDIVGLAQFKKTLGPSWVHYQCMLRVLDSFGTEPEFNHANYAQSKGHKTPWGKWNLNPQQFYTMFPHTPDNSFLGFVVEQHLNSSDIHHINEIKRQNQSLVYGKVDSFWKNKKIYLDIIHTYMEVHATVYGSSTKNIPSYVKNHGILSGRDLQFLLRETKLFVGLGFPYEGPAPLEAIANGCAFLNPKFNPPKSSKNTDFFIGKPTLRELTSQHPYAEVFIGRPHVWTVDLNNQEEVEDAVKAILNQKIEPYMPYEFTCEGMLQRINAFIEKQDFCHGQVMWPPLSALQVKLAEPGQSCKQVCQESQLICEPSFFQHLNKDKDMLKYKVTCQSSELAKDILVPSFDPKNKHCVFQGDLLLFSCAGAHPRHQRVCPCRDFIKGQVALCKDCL
Assay: GnT-V enzyme activity assay with fluorescence-labeled sugar acceptors, product separated by HPLC
Format: biochemical
Details: for Relative reaction rate: acceptor 70 μM, purified GnT-V 0.1 mg protein/ml, GnGn-bi-PA = 100; for reactivity relative to GnGn-bi-PA acceptor taken as 100%: substrate specificity
Source text: An enzyme activity can be easily assayed by labeling an acceptor with a radioisotope or with fluorescent substance, adding the enzyme and separating the reaction product by high performance liquid chromatography (HPLC). More specifically, the method reported by Tanigichi et al. (Taniguchi, N., Nishikawa, A., Fujii, S., and Gu. J., Methods Enzymol. 179, 397-408 (1989); Nishikawa, H., Gu, J., Fujii, S., and Tanigichi, N., Biochem. Biophys. Acta, 1035, 313-318 (1990)) may be followed.
Namely, the enzyme activity of GnT-V can be assayed using GnGn-2-aminopyridine (GnGn-bi-PA) as an acceptor, and UDP-GluNAc (Sigma) as a donor. Activity is shown by an amount of transferred N-acetylglucosamine/hour/mg protein. Note, an amount of protein can be measured according to a reported method (Redinbaugh, M. G., and Turley, R. B., Anal. Biochem. 153, 267-271 (1986)) using a BCA kit (Pierce Chemical Company, Rockford, Ill.) and using bovine serum albumin as a standard.
Substrate specificity was determined using the following compound as sugar acceptors according to the above-mentioned enzyme activity measuring method. [drawing 1]
GnGnF--, GnGF--, GGnF--, Gn(Gn)GnF--, Gn(Gn)Gn--, GG--, GnGn--, MM-- and GnM-- were isolated from the bovine IgG treated with anhydrous hydrazine and then labeled with a fluorescence label according to Hase et al. method (Hase, S., Ibuki, T., and Ikehara, T., J. Biochem. 95, 197-203 (1984). The purified GnT-V was diluted with PBS buffer to a final concentration of 0.1 mg protein/ml, and then reacted with each fluorescence-labeled sugar acceptor. A result is shown in Table 2.

Structure (SMILES)	Relative reaction rate	also measured
O=C(O)CN(CCN(CC(=O)O)CC(=O)O)CC(=O)O [EDTA]		inhibition of GnT-V activity (in the presence of 20 mM EDTA): not inhibited
CC(=O)N[C@H]1[C@H](O[C@@H]([C@H](O)[C@H](CNc2ccccn2)NC(C)=O)[C@H](O)CO)O[C@H](CO)[C@@H](O[C@@H]2O[C@H](CO[C@H]3O[C@H](CO)[C@@H](O)[C@H](O)[C@@H]3O[C@@H]3O[C@H](CO)[C@@H](O[C@@H]4O[C@H](CO)[C@H](O)[C@H](O)[C@H]4O)[C@H](O)[C@H]3NC(C)=O)[C@@H](O)[C@H](O[C@H]3O[C@H](CO)[C@@H](O)[C@H](O)[C@@H]3O[C@@H]3O[C@H](CO)[C@@H](O[C@@H]4O[C@H](CO)[C@H](O)[C@H](O)[C@H]4O)[C@H](O)[C@H]3NC(C)=O)[C@@H]2O)[C@@H]1O [GG-bi-PA, Galβ1-4GlcNAcβ1-2Manα1-3(Galβ1-4GlcNAcβ1-2Manα1-6)Manβ1-4GlcNAcβ1-4GlcNAc-2-aminopyridine]	0	
CC(=O)N[C@H]1[C@H](O[C@@H]([C@H](O)[C@H](CNc2ccccn2)NC(C)=O)[C@H](O)CO[C@@H]2O[C@@H](C)[C@@H](O)[C@@H](O)[C@@H]2O)O[C@H](CO)[C@@H](O[C@@H]2O[C@H](CO[C@H]3O[C@H](CO)[C@@H](O)[C@H](O)[C@@H]3O[C@@H]3O[C@H](CO)[C@@H](O[C@@H]4O[C@H](CO)[C@H](O)[C@H](O)[C@H]4O)[C@H](O)[C@H]3NC(C)=O)[C@@H](O)[C@H](O[C@H]3O[C@H](CO)[C@@H](O)[C@H](O)[C@@H]3O[C@@H]3O[C@H](CO)[C@@H](O)[C@H](O)[C@H]3NC(C)=O)[C@@H]2O)[C@@H]1O [GGnF-bi-PA, GlcNAcβ1-2Manα1-3(Galβ1-4GlcNAc2Manα1-6)Manβ1-4GlcNAcβ1-4GlcNAc(Fucα1-6)-2-aminopyridine]	0.2	
CC(=O)N[C@H]1[C@H](O[C@@H]([C@H](O)[C@H](CNc2ccccn2)NC(C)=O)[C@H](O)CO)O[C@H](CO)[C@@H](O[C@@H]2O[C@H](CO[C@H]3O[C@H](CO)[C@@H](O)[C@H](O)[C@@H]3O[C@@H]3O[C@H](CO)[C@@H](O)[C@H](O)[C@H]3NC(C)=O)[C@@H](O[C@@H]3O[C@H](CO)[C@@H](O)[C@H](O)[C@H]3NC(C)=O)[C@H](O[C@H]3O[C@H](CO)[C@@H](O)[C@H](O)[C@@H]3O[C@@H]3O[C@H](CO)[C@@H](O)[C@H](O)[C@H]3NC(C)=O)[C@@H]2O)[C@@H]1O [Gn(Gn)Gn-bi-PA, GlcNAcβ1-2Manα1-2Manα1-6)-Manβ1-4GlcNAcβ1-4GlcNAc-2-aminopyridine]	0	
CC(=O)N[C@H]1[C@H](O[C@@H]([C@H](O)[C@H](CNc2ccccn2)NC(C)=O)[C@H](O)CO[C@@H]2O[C@@H](C)[C@@H](O)[C@@H](O)[C@@H]2O)O[C@H](CO)[C@@H](O[C@@H]2O[C@H](CO[C@H]3O[C@H](CO)[C@@H](O)[C@H](O)[C@@H]3O[C@@H]3O[C@H](CO)[C@@H](O)[C@H](O)[C@H]3NC(C)=O)[C@@H](O[C@@H]3O[C@H](CO)[C@@H](O)[C@H](O)[C@H]3NC(C)=O)[C@H](O[C@H]3O[C@H](CO)[C@@H](O)[C@H](O)[C@@H]3O[C@@H]3O[C@H](CO)[C@@H](O)[C@H](O)[C@H]3NC(C)=O)[C@@H]2O)[C@@H]1O [Gn(Gn)GnF-bi-PA, GlcNAcβ1-2Manα1-2Manα1-6)-Manβ1-4GlcNAcβ1-4GlcNAc(Fucα1-6)2-aminopyridine]	0	
CC(=O)N[C@H]1[C@H](O[C@@H]([C@H](O)[C@H](CNc2ccccn2)NC(C)=O)[C@H](O)CO[C@@H]2O[C@@H](C)[C@@H](O)[C@@H](O)[C@@H]2O)O[C@H](CO)[C@@H](O[C@@H]2O[C@H](CO[C@H]3O[C@H](CO)[C@@H](O)[C@H](O)[C@@H]3O[C@@H]3O[C@H](CO)[C@@H](O)[C@H](O)[C@H]3NC(C)=O)[C@@H](O)[C@H](O[C@H]3O[C@H](CO)[C@@H](O)[C@H](O)[C@@H]3O[C@@H]3O[C@H](CO)[C@@H](O[C@@H]4O[C@H](CO)[C@H](O)[C@H](O)[C@H]4O)[C@H](O)[C@H]3NC(C)=O)[C@@H]2O)[C@@H]1O [GnGF-bi-PA, Galβ1-4GlcNAcβ1-2Manα1-3(GlcNAcβ1-2Manα1-6)Manβ1-4GlcNAcβ1-4GlcNAc(Fucα1-6)-2-aminopyridine]	3	
CC(=O)N[C@H]1[C@H](O[C@@H]([C@H](O)[C@H](CNc2ccccn2)NC(C)=O)[C@H](O)CO[C@@H]2O[C@@H](C)[C@@H](O)[C@@H](O)[C@@H]2O)O[C@H](CO)[C@@H](O[C@@H]2O[C@H](CO[C@H]3O[C@H](CO)[C@@H](O)[C@H](O)[C@@H]3O[C@@H]3O[C@H](CO)[C@@H](O)[C@H](O)[C@H]3NC(C)=O)[C@@H](O)[C@H](O[C@H]3O[C@H](CO)[C@@H](O)[C@H](O)[C@@H]3O[C@@H]3O[C@H](CO)[C@@H](O)[C@H](O)[C@H]3NC(C)=O)[C@@H]2O)[C@@H]1O [GnGnF-bi-PA, GlcNAcβ1-2Manα1-3-(GlcNAcβ1-2Manα1-6)Manβ1-4GlcNAcβ1-4GlcNAc(Fucα1-6)-2-aminopyridine]	78	reaction of the enzyme with acceptor (qualitative): reacts; reactivity relative to GnGn-bi-PA acceptor taken as 100%: about 78%
CC(=O)N[C@H]1[C@H](O[C@@H]([C@H](O)[C@H](CNc2ccccn2)NC(C)=O)[C@H](O)CO)O[C@H](CO)[C@@H](O[C@@H]2O[C@H](CO[C@H]3O[C@H](CO)[C@@H](O)[C@H](O)[C@@H]3O[C@@H]3O[C@H](CO)[C@@H](O)[C@H](O)[C@H]3NC(C)=O)[C@@H](O)[C@H](O[C@H]3O[C@H](CO)[C@@H](O[C@@H]4O[C@H](CO)[C@@H](O)[C@H](O)[C@H]4NC(C)=O)[C@H](O)[C@@H]3O[C@@H]3O[C@H](CO)[C@@H](O)[C@H](O)[C@H]3NC(C)=O)[C@@H]2O)[C@@H]1O [GnGnGn-tri-PA, GlcNAcβ1-2(GlcNAcβ1-4)Manα1-3(GlcNAcβ1-2Manα1-6)-Manβ1-4GlcNAcβ1-4GlcNAc-2-aminopyridine]	125	reaction of the enzyme with acceptor (qualitative): reacts; reactivity relative to GnGn-bi-PA acceptor taken as 100%: about 125%
CC(=O)N[C@H]1[C@H](O[C@@H]([C@H](O)[C@H](CNc2ccccn2)NC(C)=O)[C@H](O)CO)O[C@H](CO)[C@@H](O[C@@H]2O[C@H](CO[C@H]3O[C@H](CO)[C@@H](O)[C@H](O)[C@@H]3O[C@@H]3O[C@H](CO)[C@@H](O)[C@H](O)[C@H]3NC(C)=O)[C@@H](O)[C@H](O[C@H]3O[C@H](CO)[C@@H](O)[C@H](O)[C@@H]3O)[C@@H]2O)[C@@H]1O [GnM-PA, Manα1-3(GlcNAcβ1-2Manα1-6)Manβ1-4GlcNAcβ1-4GlcNAc-2-aminopyridine]	66	reaction of the enzyme with acceptor (qualitative): reacts; reactivity relative to GnGn-bi-PA acceptor taken as 100%: about 66%
CC(=O)N[C@H]1[C@H](O[C@H]2[C@@H](O)[C@@H](CO)O[C@@H](O[C@@H]([C@H](O)[C@@H](O)CNc3ccccn3)[C@H](O)CO)[C@@H]2O)O[C@H](CO)[C@@H](O[C@@H]2O[C@H](CO)[C@H](O)[C@H](O)[C@H]2O)[C@@H]1O [Lacto-N-neotetraose-PA, Galβ1-4GlcNAcβ1-3Galβ1-4Glc-2-aminopyridine]	0	
CC(=O)N[C@H]1[C@H](O[C@H]2[C@@H](O)[C@@H](CO)O[C@@H](O[C@@H]([C@H](O)[C@@H](O)CNc3ccccn3)[C@H](O)CO)[C@@H]2O)O[C@H](CO)[C@@H](O)[C@@H]1O [Lacto-N-triaose-PA, GlcNAcβ1-3Galβ1-4Glc-2-aminopyridine]	0	
CC(=O)N[C@H]1[C@H](O[C@@H]([C@H](O)[C@H](CNc2ccccn2)NC(C)=O)[C@H](O)CO)O[C@H](CO)[C@@H](O[C@@H]2O[C@H](CO[C@H]3O[C@H](CO)[C@@H](O)[C@H](O)[C@@H]3O)[C@@H](O)[C@H](O[C@H]3O[C@H](CO)[C@@H](O)[C@H](O)[C@@H]3O)[C@@H]2O)[C@@H]1O [MM-PA, Manα1-3Manα1-6)Manβ1-4GlcNAcβ1-4GlcNAc-2-aminopyridine]	0	
[Mn+2] [Mn^2+]		requirement for expression of GnT-V activity: not necessary

Source: patent US5834284A, “N-acetylglucosaminyl transferase gene coding therefor and process for production thereof” (Suntory Limited, priority 1992, dated 1998)
